Active and inactive are the calls of the source. The calls are words filed in the database; no cut-off is given here.
Experiments:
[1] = biological target: Leucine-rich repeat serine/threonine-protein kinase 2 (Homo sapiens) (UniProt Q5S007); settings: 0.03 to 3 uM
Description: Inhibition of LRRK2 in human lymphoblastoid cells assessed as inhibition of Ser935 autophosphorylation at 0.03 to 3 uM after 90 mins by immunoblot method

[2] = biological target: Leucine-rich repeat serine/threonine-protein kinase 2 (Homo sapiens) (UniProt Q5S007); settings: HEK293, 0.03 to 3 uM
Description: Inhibition of GFP-tagged LRRK2 expressed in HEK293 cells assessed as inhibition of Ser935 autophosphorylation at 0.03 to 3 uM after 90 mins by immunoblotting method

[3] = biological target: Leucine-rich repeat serine/threonine-protein kinase 2 (Homo sapiens) (UniProt Q5S007); settings: 0.03 to 3 uM; remark: listed apart in the source
Description: Inhibition of LRRK2 in human lymphoblastoid cells assessed as inhibition of Ser910 autophosphorylation at 0.03 to 3 uM after 90 mins by immunoblot method

[4] = biological target: Leucine-rich repeat serine/threonine-protein kinase 2 (Homo sapiens) (UniProt Q5S007); settings: HEK293, 0.03 to 3 uM; remark: listed apart in the source
Description: Inhibition of GFP-tagged LRRK2 expressed in HEK293 cells assessed as inhibition of Ser910 autophosphorylation at 0.03 to 3 uM after 90 mins by immunoblotting method

Leucine-rich repeat serine/threonine-protein kinase 2 (Homo sapiens), sequence (Q5S007 whole entry): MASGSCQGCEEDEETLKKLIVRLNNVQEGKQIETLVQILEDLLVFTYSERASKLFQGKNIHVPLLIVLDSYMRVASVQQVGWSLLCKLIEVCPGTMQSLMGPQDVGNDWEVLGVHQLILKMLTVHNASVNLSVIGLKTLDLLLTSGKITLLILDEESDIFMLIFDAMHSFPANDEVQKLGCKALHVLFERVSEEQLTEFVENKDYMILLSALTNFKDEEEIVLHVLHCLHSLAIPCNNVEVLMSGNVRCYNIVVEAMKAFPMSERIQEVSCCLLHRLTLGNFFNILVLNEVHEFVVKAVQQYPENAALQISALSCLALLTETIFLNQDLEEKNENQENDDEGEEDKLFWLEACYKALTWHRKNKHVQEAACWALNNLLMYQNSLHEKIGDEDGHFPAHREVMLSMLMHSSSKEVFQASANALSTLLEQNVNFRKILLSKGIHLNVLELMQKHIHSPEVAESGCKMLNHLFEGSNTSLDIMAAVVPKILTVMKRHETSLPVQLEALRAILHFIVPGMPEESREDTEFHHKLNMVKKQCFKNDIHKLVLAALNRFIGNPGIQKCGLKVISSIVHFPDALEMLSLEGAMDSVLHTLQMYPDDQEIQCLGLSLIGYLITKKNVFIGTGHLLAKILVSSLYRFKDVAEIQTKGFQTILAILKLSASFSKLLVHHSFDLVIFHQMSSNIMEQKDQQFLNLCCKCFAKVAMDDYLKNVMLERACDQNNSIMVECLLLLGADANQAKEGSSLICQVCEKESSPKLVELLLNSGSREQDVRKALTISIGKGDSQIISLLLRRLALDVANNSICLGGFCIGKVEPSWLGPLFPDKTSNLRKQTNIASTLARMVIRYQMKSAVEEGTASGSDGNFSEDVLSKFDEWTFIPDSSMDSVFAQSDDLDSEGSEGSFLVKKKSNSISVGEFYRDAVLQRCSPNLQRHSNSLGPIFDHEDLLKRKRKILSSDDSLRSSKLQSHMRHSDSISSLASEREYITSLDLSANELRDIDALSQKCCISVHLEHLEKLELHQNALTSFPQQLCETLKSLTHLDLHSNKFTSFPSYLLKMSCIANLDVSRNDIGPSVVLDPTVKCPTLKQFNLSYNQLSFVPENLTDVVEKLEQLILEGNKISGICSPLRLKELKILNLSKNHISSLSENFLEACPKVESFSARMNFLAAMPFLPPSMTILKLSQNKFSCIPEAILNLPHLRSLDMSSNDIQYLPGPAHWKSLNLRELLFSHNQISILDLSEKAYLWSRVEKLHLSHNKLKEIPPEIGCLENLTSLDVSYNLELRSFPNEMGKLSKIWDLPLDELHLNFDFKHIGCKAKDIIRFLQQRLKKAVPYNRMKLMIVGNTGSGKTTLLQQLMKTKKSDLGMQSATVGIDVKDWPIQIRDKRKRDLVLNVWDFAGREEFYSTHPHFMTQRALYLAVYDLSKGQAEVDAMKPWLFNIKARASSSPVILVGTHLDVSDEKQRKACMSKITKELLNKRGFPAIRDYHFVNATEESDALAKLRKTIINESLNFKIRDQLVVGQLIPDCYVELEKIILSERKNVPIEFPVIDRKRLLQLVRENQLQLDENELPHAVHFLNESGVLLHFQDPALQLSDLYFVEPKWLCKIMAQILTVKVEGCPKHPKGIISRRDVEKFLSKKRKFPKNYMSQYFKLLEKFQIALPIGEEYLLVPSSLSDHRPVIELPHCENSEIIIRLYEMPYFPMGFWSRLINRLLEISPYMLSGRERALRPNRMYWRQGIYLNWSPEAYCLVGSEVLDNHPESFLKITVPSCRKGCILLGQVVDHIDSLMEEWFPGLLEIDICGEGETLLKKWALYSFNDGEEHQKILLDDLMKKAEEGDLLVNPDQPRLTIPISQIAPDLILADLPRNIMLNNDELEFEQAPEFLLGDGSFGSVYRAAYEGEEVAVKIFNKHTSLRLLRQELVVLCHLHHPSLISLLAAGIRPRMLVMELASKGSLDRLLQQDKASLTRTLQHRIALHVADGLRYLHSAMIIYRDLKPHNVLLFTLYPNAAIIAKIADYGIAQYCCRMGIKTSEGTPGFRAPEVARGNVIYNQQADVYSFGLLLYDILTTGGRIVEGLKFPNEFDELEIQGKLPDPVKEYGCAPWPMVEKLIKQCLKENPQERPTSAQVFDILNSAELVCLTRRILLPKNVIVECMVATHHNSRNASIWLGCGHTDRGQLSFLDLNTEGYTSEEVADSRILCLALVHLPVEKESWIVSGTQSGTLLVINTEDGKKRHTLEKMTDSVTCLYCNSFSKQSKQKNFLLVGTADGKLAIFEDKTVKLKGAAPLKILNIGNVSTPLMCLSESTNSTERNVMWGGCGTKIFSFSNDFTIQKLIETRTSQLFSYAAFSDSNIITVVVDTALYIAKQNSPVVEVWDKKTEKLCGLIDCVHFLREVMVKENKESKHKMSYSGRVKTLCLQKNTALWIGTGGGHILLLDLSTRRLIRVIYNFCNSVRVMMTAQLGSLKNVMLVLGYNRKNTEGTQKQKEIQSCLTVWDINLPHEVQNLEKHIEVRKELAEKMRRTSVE

inhibition [1]: Active | inhibition [2]: Active | inhibition [3]: Active | inhibition [4]: Active
SMILES: COc1cc(C(=O)N2CCC(N3CCN(C)CC3)CC2)ccc1Nc1ncc2c(n1)N(C)c1ccccc1C(=O)N2C
